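Protocol summary: plate cells (96-well), add compound at 5 concentrations, incubate 48 h, interpolate endpoints linearly. TGI: concentration producing complete growth inhibition.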
Legend:
Test in all cases: NCI-60 cell line screen, 48 h
EKVX NSCLC = test system: EKVX NSCLC
HL-60(TB) leukemia = test system: HL-60(TB) leukemia
M14 melanoma = test system: M14 melanoma
MALME-3M melanoma = test system: MALME-3M melanoma
MDA-N = test system: MDA-N
NCI-H226 lung = test system: NCI-H226 lung
OVCAR-4 ovarian = test system: OVCAR-4 ovarian
OVCAR-5 ovarian = test system: OVCAR-5 ovarian
SK-MEL-28 melanoma = test system: SK-MEL-28 melanoma
SNB-75 CNS = test system: SNB-75 CNS
SK-OV-3 ovarian = test system: SK-OV-3 ovarian

| Compound | TGI (EKVX NSCLC) [µM] | TGI (HL-60(TB) leukemia) [µM] | TGI (M14 melanoma) [µM] | TGI (MALME-3M melanoma) [µM] | TGI (MDA-N) [µM] | TGI (NCI-H226 lung) [µM] | TGI (OVCAR-4 ovarian) [µM] | TGI (OVCAR-5 ovarian) [µM] | TGI (SK-MEL-28 melanoma) [µM] | TGI (SNB-75 CNS) [µM] | TGI (SK-OV-3 ovarian) [µM] |
| --- | --- | --- | --- | --- | --- | --- | --- | --- | --- | --- | --- |
| Cc1c(C)c2c(c(N)c1C#N)C(=O)N(OS(=O)(=O)c1ccccc1)C2=O | 37.4 | > 100 | 41.6 | 31.8 | 80.8 | 43.3 | 41.3 | > 100 | 67.3 | > 100 | – |
| NNC(=O)Cc1cccnc1 | > 100 | > 100 | > 100 | > 100 | > 100 | – | > 100 | > 100 | > 100 | > 100 | > 100 |
| O=C1C=C(N2CCCC2)C(=O)c2c(O)ccc(O)c21 | > 10 | > 10 | > 10 | > 10 | > 10 | > 10 | – | > 10 | > 10 | > 10 | > 10 |
| Nc1nc2cc(CNc3ccc(C(=O)O)cc3)ccc2nc1-c1ccccc1 | – | > 100 | > 100 | > 100 | > 100 | > 100 | > 100 | > 100 | > 100 | > 100 | > 100 |
| CC(/C=N/N(C)C1=NCCCCN1)=N/N(C)C1=NCCCCN1 | > 100 | > 100 | – | > 100 | > 100 | > 100 | > 100 | > 100 | > 100 | > 100 | > 100 |
| OCc1c2c(cc3c1CC1(C3)Cc3cc4c(c(CO)c3C1)CCC4)CCC2 | 30.5 | 18.4 | 32.9 | 30 | 29.2 | 28.5 | 23.5 | 34.6 | – | – | 33 |
| O=C1c2n[nH]nc2C(=O)c2n[nH]nc21 | > 100 | > 100 | > 100 | – | > 100 | > 100 | > 100 | > 100 | > 100 | > 100 | > 100 |
| Cc1c(NC(=S)N/N=C\C(=N/NC(=S)Nc2c(C)n(C)n(-c3ccccc3)c2=O)c2ccccc2)c(=O)n(-c2ccccc2)n1C | > 100 | – | > 100 | > 100 | – | > 100 | > 100 | > 100 | – | > 100 | > 100 |
| c1ccc2c(c1)nc1n2CCNC1 | > 100 | > 100 | > 100 | – | > 100 | > 100 | > 100 | > 100 | > 100 | > 100 | > 100 |
| O=c1c(/C=C/c2c(O)ccc3ccccc23)nnc2sc(-c3cccc([N+](=O)[O-])c3)nn12 | 79.4 | 13.5 | 68.4 | 47.3 | > 100 | – | 51.6 | > 100 | > 100 | – | > 100 |
| CC(=O)N1CC(C)(C)c2c1cc(C)c(O)c2C | > 100 | > 100 | > 100 | – | > 100 | > 100 | > 100 | > 100 | > 100 | – | > 100 |
| Cc1ccc(C2(N3CCCC3)OC(C)(C)c3cccc4cccc2c34)cc1 (stereo not drawn) | 24 | > 100 | 34 | 41.4 | 29.9 | 31.8 | 27.6 | 31.4 | – | 26.3 | 29.3 |
| N#Cc1ccc(/C=N/NC(=O)CSCC(=O)N/N=C/c2ccc(C#N)cc2)cc1 | > 100 | > 100 | > 100 | > 100 | – | > 100 | > 100 | > 100 | > 100 | 81.9 | > 100 |
| NNC(=Nc1ccccc1)SCc1ccccc1 | – | > 100 | > 100 | > 100 | > 100 | > 100 | > 100 | > 100 | > 100 | > 100 | > 100 |
| O=c1[nH]c(=S)c2cc3c(=S)[nH]c(=O)n(CCC(c4ccccc4)(c4ccccc4)c4ccccc4)c3nc2n1CCC(c1ccccc1)(c1ccccc1)c1ccccc1 | > 100 | – | > 100 | > 100 | > 100 | > 100 | > 100 | > 100 | > 100 | > 100 | > 100 |
| CCOC(=O)CN=C1Nc2ccccc2C(=O)N2CSCC12 (stereo not drawn) | > 100 | – | > 100 | > 100 | > 100 | > 100 | > 100 | > 100 | > 100 | > 100 | > 100 |
| c1nncn1C12C3C4C5C3C1C5C42 (stereo not drawn) | > 100 | > 100 | – | – | > 100 | > 100 | – | > 100 | > 100 | > 100 | > 100 |
| CC(C)=NNc1cnnc2ccc([N+](=O)[O-])cc12 | > 100 | 43.2 | > 100 | > 100 | > 100 | > 100 | – | > 100 | – | > 100 | > 100 |
| CCn1nc(-c2ccccc2)c2c1N(C)c1ccccc1-n1c(-c3ccccc3)nnc1-2 | – | – | 32.1 | – | 28.9 | 52.7 | – | 33.5 | 33.1 | 15.7 | 38.5 |
| COc1ccc2c(c1)C1Oc3ccccc3CC1(O)CO2 (stereo not drawn) | > 100 | – | > 100 | > 100 | > 100 | > 100 | > 100 | > 100 | – | > 100 | > 100 |
| CN1c2ccccc2C(=O)NC12CCN(Cc1ccccc1)CC2 | > 100 | > 100 | > 100 | > 100 | – | > 100 | > 100 | > 100 | > 100 | > 100 | > 100 |
| CC1(C)CC(=O)C2=C(C1)NC(SCC(=O)O)=C(C#N)C2c1ccc(Br)cc1 (stereo not drawn) | > 100 | > 100 | > 100 | – | > 100 | > 100 | > 100 | > 100 | > 100 | > 100 | > 100 |
